Patent US10239893B2, “Controlling the isomerization rate of Azo-BF2 switches using aggregation” (THE TRUSTEES OF DARTMOUTH COLLEGE, priority 2013, dated 2019)
Several values for one entry are separate records, joined by “and”; a condition that tells them apart may be missing. Identical values can stand only once.

Tests used:
[1] = Isomer ratios under dark and at photostationary states by 1H NMR; type: physicochemical; details: for PSS isomer ratio, cis, irradiation at 710 nm (PSS710): lowest estimation because of fast thermal relaxation
Procedure: ^1H NMR spectroscopy was employed to evaluate the photo-switching efficiency of 10 in CD2Cl2 (0.53 mM).
[…] The LEDs were affixed in a custom irradiation chamber fitted with a cooling fan to maintain ambient temperature. The light intensities at 430 and 600 nm were determined using chemical actinometry^S1 and a Thorlabs optical power meter, respectively. Photoisomerization quantum yields were measured by monitoring the proton integral change in trans/cis isomers after 430 and 600 nm irradiation for 2 and 20 s, respectively. Each quantum yield measurement was repeated three times under the same conditions. The photostationary states (PSS) were determined upon continuous irradiation until no further isomerization was observed using ^1H NMR spectroscopy. PBS buffer is an aqueous solution prepared by dissolving Na2HPO4 (1.420 g), KH2PO4 (0.245 g) NaCl (8.007 g) and KCl (0.201 g) in 1 L deionized water.

[2] = Thermal cis→trans isomerization kinetics followed by UV/Vis in CH2Cl2; details: deoxygenated CH2Cl2, 294 K, starting from cis PSS, average of three measurements
Procedure: The thermal isomerization process was monitored by measuring the change in absorption intensity at 480 nm as a function of time (at 1 min intervals).
The thermal isomerization process was monitored by measuring the change in absorption intensity at 594 nm as a function of time (at 1 min intervals).

[3] = Stability to reduction by glutathione, 10 mM GSH in acetonitrile:PBS buffer (1:1); type: physicochemical; details: for degradation half-life with GSH: acetonitrile:PBS (1:1) with 10 mM GSH, 25° C.
Procedure: (§1) The stability of the switches in an aqueous environment was tested by conducting multiple switching cycles (10 cycles shown in FIG. 22a) of 4 in an acetonitrile:PBS buffer (1:1) mixed solvent system. These experiments were conducted by irradiating the sample using 710 nm light, followed by thermal relaxation under dark. […] The stability of switch 4 to reduction by glutathione (GSH) was also tested. The switch was incubated in 10 mM reduced glutathione in acetonitrile:PBS buffer (1:1) solution.

[4] = Thermal cis→trans relaxation followed by 1H NMR in CD2Cl2; type: physicochemical; details: CD2Cl2 at 294 K, starting from PSS710
Source text: Unaltered CD2Cl2 solution of compound 4 in a quartz NMR tube was irradiated at 710 nm until its photostationary state was reached.

[5] = Stability (hydrolysis) in acetonitrile:PBS buffer (1:1), followed by UV-Vis; type: physicochemical; details: acetonitrile:PBS (1:1), 25° C.
Procedure: as §1
All reagents and starting materials were purchased from commercial vendors and used without further purification. Column chromatography was performed on silica gel (Silicycle, 230-400 mesh). The melting points were measured on an Electrothermal 9100 instrument in open capillary tubes without thermometer correction. Deuterated solvents were purchased from Cambridge Isotope Laboratories and used as received. ^1H NMR and ^13C NMR spectra were recorded on a 500 MHz spectrometer, with working frequencies of 499.87 MHz for ^1H nuclei and 125.7 MHz for ^13C nuclei, respectively. ^19F NMR spectra were recorded on a 300 MHz spectrometer, with working frequency of 282.2 MHz for ^19F nuclei. Chemical shifts are expressed in ppm relative to tetramethylsilane, using the residual solvent peak as a reference standard. GC-MS spectra were measured on a Shimadzu Gas Chromatograph/Mass Spectrometer (GCMS-QP2010Plus). UV-Vis spectra were recorded on a Shimadzu UV-Vis spectrophotometer (UV-1800). Irradiation experiments were conducted with sufficient stirring using a Newport mercury lamp (67005-414) equipped with a Jarrell-Ash light monochromator. The 710 nm Near IR light source was built with appropriate LED light bulbs (LED710-lau AlGaAs Infrared LEDs purchased from Roithner Lasertechnik GmbH). PBS buffer is an aqueous solution prepared with 11.9 mM sodium phosphate (pH 7.3-7.4), 137 mM NaCl and 2.7 mM KCl.

[6] = Reversibility of photoswitching over repeated irradiation cycles; type: physicochemical; details: CH2Cl2, alternating visible light irradiation
Source text: The photoisomerization of Compound 1 was studied extensively by UV/vis (FIG. 1) spectroscopy. When stored in the dark, Compound 1 adopts its thermodynamically stable trans form that has an absorption maximum (λmax) at 530 nm (ε=8026 M^−1 cm^−1). Upon irradiation at 570 nm, the cis form (λmax=480 nm; £=7792 M^−1 cm^−1) becomes dominant, accompanied by a sharp color change of the solution from bright purple to light orange. The process is also accompanied by changes in the intensity of bands at higher energies (λmax=340 and 264 nm). Irradiation at 450 nm drives the system back to its trans form. […] The trans/cis isomerization can be activated solely by the use of visible light and there is no need for UV light.
The synthesis of the azo-BF2 complex 10 started from the hydrazone-based switch,^18 followed by the coupling reaction with BF3.OEt2^19 (Scheme 7). The product was fully characterized using NMR spectroscopy and mass spectrometry (FIGS. 62-76). […] Upon irradiation with a 600 nm light source, E to Z isomerization takes place (isosbestic points at 318, 406, and 508 nm) leading to a new band with a λmax at 501 nm, and e of 11209 M^−1·cm^−1 (FIGS. 58 and 81). The isomerization is accompanied with a significant color change of the solution from purple to dark orange (FIG. 58b).

Row | SMILES | trans isomer ratio under dark [1] [%] | PSS isomer ratio, cis, irradiation at 630 nm (PSS630) ([1]; CD2Cl2 at 294 K) | PSS isomer ratio, trans, irradiation at 490 nm (PSS490) ([1]; CD2Cl2 at 294 K) | half-life (t1/2) of the cis→trans isomerization [2] [h] | PSS isomer ratio, cis, irradiation at 640 nm (PSS640) ([1]; CD2Cl2 at 294 K) | stability to reduction by glutathione (in words) ([3]; 10 mM reduced glutathione in acetonitrile:PBS buffer (1:1)) | degradation half-life with GSH [3] [h] | Half-life, cis→trans thermal relaxation [4] [h] | degradation (hydrolysis) half-life [5] [h] | PSS isomer ratio, cis, irradiation at 710 nm (PSS710) ([1]; CD2Cl2 at 294 K) | reversibility / degradation on repeated photoisomerization (in words) [6]
1 | COc1ccc(N=[N+]2C(C#N)=C3C=Cc4ccccc4N3[B-]2(F)F)cc1 [Compound 2] | 93 | 96% and 96±1% | 92% and 92±1% | – | – | – | – | – | – | – | –
2 | COc1ccc(N=[N+]2C(C#N)=C3C=Cc4ccccc4N3[B-]2(F)F)c(OC)c1 [Compound 3] | 58 | – | 56% and 56±1% | 13.4 | 79% and 79±1% | – | – | – | – | – | –
3 | CN(C)c1ccc(N=[N+]2C(C#N)=C3C=Cc4ccccc4N3[B-]2(F)F)cc1 [Compound 4] | 97 | – | – | – | – | No obvious difference was observed in its degradation half-life | 2.5 | 0.0694 | 2.3 | 63% and 63±1% | –
4 | N#CC1=C2C=Cc3ccccc3N2[B-](F)(F)[N+]1=Nc1ccc(N2CCOCC2)cc1 [Compound 7] | 97 | – | – | – | – | – | 1.0 | 0.25 | 0.9 | 83% and 82±1% | –
5 | N#CC1=C2C=Cc3ccccc3N2[B-](F)(F)[N+]1=Nc1ccc(N2CCCCC2)cc1 [Compound 5] | 98 | – | – | – | – | – | 2.1 | 0.0417 | 2 | – | –
6 | N#CC1=C2C=Cc3ccccc3N2[B-](F)(F)[N+]1=Nc1ccccc1 [Compound 1] | – | – | – | – | – | – | – | – | – | – | no degradation
7 | CN1CCN(c2ccc(N=[N+]3C(C#N)=C4C=Cc5ccccc5N4[B-]3(F)F)cc2)CC1 [Compound 6] | 94 | – | – | – | – | – | 1.3 | 0.111 | 1.2 | 49% and 49±1% | –
